Results: patent US9284350B2, “IAP BIR domain binding compounds” (Pharmascience Inc., priority 2010, dated 2016)

Tests used:
[1] = test system: Colorectal carcinoma HCT116 cells; assay: Cell death assay (MTT) in combination with HGS ETR1; type: cell-based; details: with HGS ETR1 30 ng/ml, 72 hours, read-out: HCT116+ mapatubimap EC50
Protocol: Colorectal carcinoma HCT116 cells were cultured as monolayers in 96 well plates at a density of 2000 cells per well in McCoy's 5a medium (HyClone) supplemented with 2.2 g/L sodium bicarbonate, 10% FBS (HyClone) and 1% penicillin/streptomycin (HyClone). 24 hours later, triplicate wells were treated with HGS ETR1 (30 ng/ml) in combination with compound. Cells were incubated in the presence of compound and HGS agonistic Trail receptor antibody, ETR1 (Mapatumamab, 30 ng/ml) for 72 hours. Metabolic viability of remaining cells was assessed by MTT (thiazolyl blue tetrazolium bromide, Sigma) assay.
EC50 values (50% cell survival in the presence of compound as compared to untreated controls) were calculated from survival curves using BioAssay software (CambridgeSoft) and GraphPad Prism (Graph Pad Software Inc.). The results are provided in Table 3, below, wherein A=less than 50 nM; B=less than 250 nM; C=less than 1000 nM; and D=greater than 1000 nM.

c-IAP1 = target: T1, c-IAP1 (Homo sapiens, UniProt Q13490); assay: Fluorescence polarization-based competition assay, c-IAP1; type: binding; details: FP assay, ki derived from IC50
T1 construct: GST (N); made in house; host or cells: E. coli DH5α
Protocol: (§1) Binding of compounds of Formula 1 to target BIR domains was measured using a fluorescence-polarization (FP) assay. Fluorescence-polarization was evaluated using a GENios microplate reader (TECAN) Pro instrument with the excitation filter set at 485 nm and the emission filter set at 535 nm. The final amount of protein used in the assay corresponds to the amount of protein necessary to obtain 80% of the maximum FP value in a P1 or P2 fluorescent (FITC) probe saturation experiment. The compounds potency (IC50) and selectivity, was assessed in the presence of the amount of target protein established, fluorescent probe, and a 10 point serial dilution in assay buffer (50 mM Hepes, pH 7.5, 250 mcg/mL γ-globulin, 2 mM DTT, 1% DMSO) of the selected compounds.
(§2) Assays were carried out in duplicate using untreated black 96-well plates (Corning #3915) and a total volume of 100 microliters, containing 25 microliters of fluorescent probe at a final concentration of 2 nM in assay buffer, 25 microliters of diluted compound, 25 microliters of BIR protein into assay buffer and 25 microliters of assay buffer. Buffer only (blank) or probe only in buffer (G-factor) were used as controls for calibration. The plate was incubated at room temperature in the dark for one hour and FP values in millipolarization units (mP) were recorded using Genios Pro FP reader.
(§3) The measured FP values (mP) were then plotted against compound concentration, and IC50 values were calculated based on a sigmoidal dose-response (variable-slope) curve fit using GraphPad Prism version 4.02 for Windows, GraphPad Software, San Diego Calif. USA and/or CambridgeSoft BioAssay Enterprise Version 10.1. The IC50 value is the concentration of test compound at which 50% of the tracer was displaced. ki values were derived from the calculated IC50 values as described above and according to the equation described in Nikolovska-Coleska, Z. (2004) Anal Biochem 332, 261-273. The results are presented in Table 2, wherein A=less than 25 nM; B=less than 250 nM; C=less than 1000 nM; and D=greater than 1000 nM.

XIAP = target: T2, XIAP (Homo sapiens, UniProt P98170); assay: Fluorescence polarization-based competition assay, XIAP; type: binding; details: FP assay, ki derived from IC50
T2 construct: fused on or other part: GST tag at the N-terminus (pGEX4T vectors)
Protocol: as §1, §2, §3

cIAP2 = target: T3, cIAP2 (Homo sapiens, UniProt Q13489); assay: Fluorescence polarization-based competition assay, cIAP2; type: binding; details: FP assay, ki derived from IC50
T3 construct: GST (N); made in house; host or cells: E. coli DH5α
Protocol: as §1, §2, §3

T1 sequence (Q13490 251-363): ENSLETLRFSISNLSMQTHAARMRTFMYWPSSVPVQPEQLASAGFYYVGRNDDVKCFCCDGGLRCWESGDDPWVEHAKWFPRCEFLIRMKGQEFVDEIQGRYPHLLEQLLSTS
T3 sequence (Q13489 236-349): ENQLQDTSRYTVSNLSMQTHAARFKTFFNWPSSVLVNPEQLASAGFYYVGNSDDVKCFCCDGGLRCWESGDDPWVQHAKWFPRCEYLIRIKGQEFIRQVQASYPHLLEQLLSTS
T2 sequence (P98170 246-497 limits assumed): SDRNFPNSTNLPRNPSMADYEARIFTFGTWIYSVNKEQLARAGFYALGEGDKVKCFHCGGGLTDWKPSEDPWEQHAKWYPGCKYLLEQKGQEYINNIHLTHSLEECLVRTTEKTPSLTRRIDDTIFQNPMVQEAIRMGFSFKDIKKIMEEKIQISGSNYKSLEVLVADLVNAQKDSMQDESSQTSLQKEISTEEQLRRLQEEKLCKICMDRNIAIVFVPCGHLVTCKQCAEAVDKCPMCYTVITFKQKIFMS

Ki (c-IAP1) [nM] | Ki (XIAP) [nM] | Ki (cIAP2) [nM] | SMILES | EC50 [1] [nM]
< 25 | < 1000 | < 250 | CCN[C@@H](C)C(=O)N[C@H](C(=O)N1CCC[C@H]1CN(CCc1ccccc1)C(=O)c1cn2cccnc2n1)C(C)(C)C [Compound 14] | < 250
< 25 | < 250 | < 25 | CN[C@@H](C)C(=O)N[C@H](C(=O)N1CCC[C@H]1CN(CCc1ccc(F)cc1)C(=O)c1cn(-c2ccc(F)cc2)cn1)[C@@H](C)OC [Compound 72] | < 50
< 25 | < 250 | < 25 | CN[C@@H](C)C(=O)N[C@H](C(=O)N1CCC[C@H]1CN(CCc1ccccc1)C(=O)c1cn2cccnc2n1)C(C)(C)C [Compound 6] | < 250
< 25 | < 250 | < 25 | CN[C@@H](C)C(=O)N[C@H](C(=O)N1CCC[C@H]1CN(CCc1ccc(F)cc1)C(=O)c1cn(-c2ccccc2)nn1)[C@@H](C)OC [Compound 77] | < 50
< 25 | < 1000 | < 250 | CN[C@@H](C)C(=O)N[C@H](C(=O)N1CCC[C@H]1CN(CCc1ccc(F)cc1)C(=O)c1cncn1C)C(C)(C)C [Compound 92] | < 250
< 25 | < 250 | < 25 | CN[C@@H](C)C(=O)N[C@H](C(=O)N1CCC[C@H]1CN(CCc1ccc(F)cc1)C(=O)c1cn2c(n1)CCC2)[C@@H](C)OC [Compound 75] | < 50
< 25 | < 250 | < 25 | CN[C@@H](C)C(=O)N[C@H](C(=O)N1CCC[C@H]1CN(CCc1ccc(F)cc1)C(=O)c1cn2ccccc2n1)C1CCCCC1 [Compound 18] | < 50
< 25 | < 250 | < 25 | CN[C@@H](C)C(=O)N[C@H](C(=O)N1CCC[C@H]1CN(CCc1ccc(F)cc1)C(=O)c1cn2cccnc2n1)[C@@H](C)OC [Compound 36] | < 250
< 25 | < 250 | < 25 | CN[C@@H](C)C(=O)N[C@H](C(=O)N1C[C@@H](NC(=O)c2ccccc2)C[C@H]1CN(CCc1ccc(F)cc1)C(=O)c1cn2c(n1)CCC2)C(C)(C)C [Compound 89] | < 50
< 25 | < 250 | < 25 | CN[C@@H](C)C(=O)N[C@H](C(=O)N1CCC[C@H]1CN(CCc1ccc(F)cc1)C(=O)c1cn(-c2ccc(F)cc2)cn1)C(C)(C)C [Compound 66] | < 50
< 25 | < 250 | < 25 | CN[C@@H](C)C(=O)N[C@H](C(=O)N1CCC[C@H]1CN(CCc1ccc(F)cc1)C(=O)c1cn(C(C)C)cn1)C(C)(C)C [Compound 94] | < 50
< 25 | < 250 | < 25 | CN[C@@H](C)C(=O)N[C@H](C(=O)N1C[C@@H](Oc2ccc(F)cc2)C[C@H]1CN(CCc1ccc(F)cc1)C(=O)c1cn(C)cn1)[C@@H](C)OC [Compound 99] | < 50
< 25 | < 250 | < 25 | CN[C@@H](C)C(=O)N[C@H](C(=O)N1CCC[C@H]1CN(CCc1ccc(F)cc1)C(=O)c1cn2c(n1)CCC2)C1CCCCC1 [Compound 113] | < 50
< 25 | < 250 | < 25 | CN[C@@H](C)C(=O)N[C@H](C(=O)N1CCC[C@H]1CN(CCc1ccc(F)cc1)C(=O)c1cn2ccccc2n1)[C@@H](C)OC [Compound 58] | < 50
< 25 | < 250 | < 25 | CN[C@@H](C)C(=O)N[C@H](C(=O)N1CCC[C@H]1CN(CCc1ccc(F)cc1)C(=O)c1cnn(-c2ccccc2)c1)C(C)(C)C [Compound 90] | < 250
< 25 | < 250 | < 25 | CN[C@@H](C)C(=O)N[C@H](C(=O)N1CCC[C@H]1CN(CCc1ccc(F)cc1)C(=O)c1ncc(-c2ccccc2)o1)C(C)(C)C [Compound 123] | < 50
< 25 | < 250 | < 25 | CN[C@@H](C)C(=O)N[C@H](C(=O)N1CCC[C@H]1CN(CCc1ccc(F)cc1)C(=O)c1cn(C2CCOCC2)cn1)C(C)(C)C [Compound 95] | < 50
< 25 | < 250 | < 25 | CN[C@@H](C)C(=O)N[C@H](C(=O)N1CCC[C@H]1CN(CCc1ccc(F)cc1)C(=O)c1cc(-c2ccccc2)on1)C(C)(C)C [Compound 115] | < 250
< 25 | < 250 | < 25 | CN[C@@H](C)C(=O)N[C@H](C(=O)N1CCC[C@H]1CN(CCc1ccc(F)cc1)C(=O)c1cn2cc(F)cnc2n1)C1CCCCC1 [Compound 103] | < 50
< 25 | < 250 | < 25 | CCO[C@H](C)[C@H](NC(=O)[C@H](C)NC)C(=O)N1CCC[C@H]1CN(CCc1ccc(F)cc1)C(=O)c1cn2c(n1)CCC2 [Compound 81] | < 50
< 25 | < 250 | < 25 | CCO[C@H](C)[C@H](NC(=O)[C@H](C)NC)C(=O)N1CCC[C@H]1CN(CCc1ccc(F)cc1)C(=O)c1cn(-c2ccc(F)cc2)cn1 [Compound 79] | < 50
< 25 | < 250 | < 25 | CCO[C@H](C)[C@H](NC(=O)[C@H](C)NC)C(=O)N1CCC[C@H]1CN(CCc1ccc(F)cc1)C(=O)c1cn2ccccc2n1 [Compound 78] | < 50
< 25 | < 250 | < 25 | CN[C@@H](C)C(=O)N[C@H](C(=O)N1CCC[C@H]1CN(CCc1ccc(F)cc1)C(=O)c1cn(-c2ccc(F)cc2)nn1)C(C)(C)C [Compound 125] | –
< 25 | < 250 | < 25 | CN[C@@H](C)C(=O)N[C@H](C(=O)N1CCC[C@H]1CN(CCc1ccc(F)cc1)C(=O)c1nnn(-c2ccc(F)cc2)n1)C(C)(C)C [Compound 126] | –
< 25 | < 250 | – | CN[C@@H](C)C(=O)N[C@H](C(=O)N1CCC[C@H]1CN(CCc1ccc(F)cc1)C(=O)c1nc2ccccc2o1)C(C)(C)C [Compound 62] | < 1000
< 25 | < 250 | – | CN[C@@H](C)C(=O)N[C@H](C(=O)N1CCC[C@H]1CN(CCc1ccccc1)C(=O)c1cn2c(n1)CCCC2)C(C)(C)C [Compound 15] | < 250
< 25 | < 250 | – | CN[C@@H](C)C(=O)N[C@H](C(=O)N1CCC[C@H]1CN(CCc1ccccc1F)C(=O)c1cn2cccnc2n1)C(C)(C)C [Compound 11] | < 250
< 25 | < 1000 | – | CC[C@H](N)C(=O)N[C@H](C(=O)N1CCC[C@H]1CN(CCc1ccccc1)C(=O)c1cn2ccccc2n1)C1CCCCC1 [Compound 29] | > 1000
< 25 | < 250 | – | CN[C@@H](C)C(=O)N[C@H](C(=O)N1CCC[C@H]1CN(CCc1ccc(F)cc1)C(=O)c1cn(-c2c(C)cccc2C)cn1)C(C)(C)C [Compound 54] | < 50
< 25 | < 250 | – | CN[C@@H](C)C(=O)N[C@H](C(=O)N1CCC[C@H]1CN(CCc1ccccc1)C(=O)C(=O)Nc1ccccc1)C(C)(C)C [Compound 9] | < 250
